# Data taken from US9284277B2, “Benzazepines as serotonin 5-HT2C receptor ligands and uses thereof” (ABT Holding Company, priority 2012, dated 2016).
# Target: T1, human 5HT2c receptor (INI isoform) (Homo sapiens, UniProt P28335)
# T1 sequence (P28335 33-458): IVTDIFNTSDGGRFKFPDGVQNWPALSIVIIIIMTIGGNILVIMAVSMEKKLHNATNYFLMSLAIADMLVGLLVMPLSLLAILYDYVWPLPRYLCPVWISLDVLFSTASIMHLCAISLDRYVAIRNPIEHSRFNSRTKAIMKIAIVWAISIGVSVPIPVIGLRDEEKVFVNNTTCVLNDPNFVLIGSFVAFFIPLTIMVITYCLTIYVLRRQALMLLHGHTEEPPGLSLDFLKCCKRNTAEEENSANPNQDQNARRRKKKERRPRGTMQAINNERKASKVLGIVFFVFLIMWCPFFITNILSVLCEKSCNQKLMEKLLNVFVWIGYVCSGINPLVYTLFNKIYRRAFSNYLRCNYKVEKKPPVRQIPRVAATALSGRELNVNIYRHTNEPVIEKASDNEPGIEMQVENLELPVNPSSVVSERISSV
# Experiment: Phosphotidyl Inositol Turnover Assay (IP-One Tb kit), agonist potency
# Format: cell-based
# Conditions: not given
row,SMILES,EC50 [nM]
1,"CC1c2c(ccc3c2CCNCC3)CC1(F)F (stereo not shown) [Example 32, 2,2-Difluoro-1-methyl-1,2,3,6,7,8,9,10-octahydro-8-aza-cyclohepta[e]indene]",< 10
2,"CC1CCc2ccc3c(c21)CCNCC3 (stereo not shown) [Example 2, 1-Methyl-1,2,3,6,7,8,9,10-octahydro-8-aza-cyclohepta[e]indene]",< 10
3,"CCC1CCc2c(I)cc3c(c21)CCNCC3 (stereo not shown) [Example 7, 1-Ethyl-4-iodo-1,2,3,6,7,8,9,10-octahydro-8-aza-cyclohepta[e]indene]",< 10
4,"CCC1CCc2c(Cl)cc3c(c21)CCNCC3 (stereo not shown) [Example 6, 4-Chloro-1-ethyl-1,2,3,6,7,8,9,10-octahydro-8-aza-cyclohepta[e]indene]",< 10
5,"CC1(C)c2c(ccc3c2CCNCC3)CC1(F)F [Example 34, 2,2-Difluoro-1,1-dimethyl-1,2,3,6,7,8,9,10-octahydro-8-aza-cyclohepta[e]indene]",< 10
6,"CCC1CCOc2ccc3c(c21)CCNCC3 (stereo not shown) [Example 37, 1-Ethyl-2,3,8,9,10,11-hexahydro-1H,7H-4-oxa-9-aza-cyclohepta[a]naphthalene]",< 10
7,"COC1CCc2ccc3c(c21)CCNCC3 (stereo not shown) [Example 43, 1-Methoxy-1,2,3,6,7,8,9,10-octahydro-8-aza-cyclohepta[e]indene]",< 10
8,"CCC1CCc2c(F)cc3c(c21)CCNCC3 (stereo not shown) [Example 8, 1-Ethyl-4-fluoro-1,2,3,6,7,8,9,10-octahydro-8-aza-cyclohepta[e]indene]",< 10
9,"CCC1COc2ccc3c(c21)CCNCC3 (stereo not shown) [Example 36, 1-Ethyl-1,2,7,8,9,10-hexahydro-6H-3-oxa-8-aza-cyclohepta[e]indene]",< 10
10,"CCC1CCc2ccc3c(c21)CCNCC3 (stereo not shown) [Example 3, 1-Ethyl-1,2,3,6,7,8,9,10-octahydro-8-aza-cyclohepta[e]indene]",< 10
11,"CC1(C)CCc2c(-c3ccccc3)cc3c(c21)CCNCC3 [Example 35, 1,1-Dimethyl-4-phenyl-1,2,3,6,7,8,9,10-octahydro-8-aza-cyclohepta[e]indene]",< 1000
12,"COC1c2c(ccc3c2CCNCC3)CC1(F)F (stereo not shown) [Example 38, 2,2-Difluoro-1-methoxy-1,2,3,6,7,8,9,10-octahydro-8-aza-cyclohepta[e]indene]",< 10
13,"FC1(F)Cc2ccc3c(c2C1)CCNCC3 [Example 42, 2,2-Difluoro-1,2,3,6,7,8,9,10-octahydro-8-aza-cyclohepta[e]indene]",< 10
14,"Clc1cc2c(c3c1CCC3c1ccccc1)CCNCC2 (stereo not shown) [Example 10, 4-Chloro-1-phenyl-1,2,3,6,7,8,9,10-octahydro-8-aza-cyclohepta[e]indene]",< 10
15,"CC1(C)CCc2ccc3c(c21)CCNCC3 [Example 13, 1,1-Dimethyl-1,2,3,6,7,8,9,10-octahydro-8-aza-cyclohepta[e]indene]",< 10
16,"CCOC1c2c(ccc3c2CCNCC3)CC1(F)F (stereo not shown) [Example 41, 1-Ethoxy-2,2-difluoro-1,2,3,6,7,8,9,10-octahydro-8-aza-cyclohepta[e]indene]",< 10
17,"CCC1c2c(ccc3c2CCNCC3)CC1(F)F (stereo not shown) [Example 31, 1-Ethyl-2,2-difluoro-1,2,3,6,7,8,9,10-octahydro-8-aza-cyclohepta[e]indene]",< 10
18,"c1cc2c(c3c1CCC3)CCNCC2 [Example 1, 1,2,3,6,7,8,9,10-Octahydro-8-aza-cyclohepta[e]indene]",< 10
19,"CCCC1CCc2ccc3c(c21)CCNCC3 (stereo not shown) [Example 5, 1-Propyl-1,2,3,6,7,8,9,10-octahydro-8-aza-cyclohepta[e]indene]",< 10

# Same assay, conditions: 5-HT2c PI turnover potency of the more active isomer (where applicable); HEK 293 EBNA cells expressing INI isoform of human 5HT2c receptor; read-out: Potency at 5HT2c (INI isoform)
row,SMILES,EC50 [nM]
1,"FC1(F)Cc2ccc3c(c2C1C1CC1)CCNCC3 (stereo not shown) [Example 22, 1-Cyclopropyl-2,2-difluoro-1,2,3,6,7,8,9,10-octahydro-8-aza-cyclohepta[e]indene]",< 10
2,"Cc1ccccc1C1c2c(ccc3c2CCNCC3)CC1(F)F (stereo not shown) [Example 15, 2,2-Difluoro-1-o-tolyl-1,2,3,6,7,8,9,10-octahydro-8-aza-cyclohepta[e]indene]",< 10
3,"FC1(F)Cc2c(Cl)cc3c(c2C1c1cccnc1)CCNCC3 (stereo not shown) [Example 30, 4-Chloro-2,2-difluoro-1-pyridin-3-yl-1,2,3,6,7,8,9,10-octahydro-8-aza-cyclohepta[e]indene]",< 10
4,"FC1(F)Cc2ccc3c(c2C1c1ccccc1)CCNCC3 (stereo not shown) [Example 14, 2,2-Difluoro-1-phenyl-1,2,3,6,7,8,9,10-octahydro-8-aza-cyclohepta[e]indene]",< 10
5,"c1ccc(-c2coc3ccc4c(c23)CCNCC4)cc1 [Example 39, 1-Phenyl-7,8,9,10-tetrahydro-6H-3-oxa-8-aza-cyclohepta[e]indene]",< 10
6,"Cc1ccc(C2c3c(ccc4c3CCNCC4)CC2(F)F)cc1 (stereo not shown) [Example 17, 2,2-Difluoro-1-p-tolyl-1,2,3,6,7,8,9,10-octahydro-8-aza-cyclohepta[e]indene]",< 100
7,"COc1cccc(C2c3c(ccc4c3CCNCC4)CC2(F)F)c1 (stereo not shown) [Example 26, 2,2-Difluoro-1-(3-methoxy-phenyl)-1,2,3,6,7,8,9,10-octahydro-8-aza-cyclohepta[e]indene]",< 10
8,"Fc1cc2c(c3c1CCC3c1cccnc1)CCNCC2 (stereo not shown) [Example 12, 4-Fluoro-1-pyridin-3-yl-1,2,3,6,7,8,9,10-octahydro-8-aza-cyclohepta[e]indene]",< 10
9,"FC1(F)Cc2ccc3c(c2C1c1ccc(Cl)cc1)CCNCC3 (stereo not shown) [Example 24, 1-(4-Chloro-phenyl)-2,2-difluoro-1,2,3,6,7,8,9,10-octahydro-8-aza-cyclohepta[e]indene]",< 10
10,"FC1(F)Cc2ccc3c(c2C1c1cccnc1)CCNCC3 (stereo not shown) [Example 28, 2,2-Difluoro-1-pyridin-3-yl-1,2,3,6,7,8,9,10-octahydro-8-aza-cyclohepta[e]indene]",< 10
11,"FC(F)(F)c1cccc(C2c3c(ccc4c3CCNCC4)CC2(F)F)c1 (stereo not shown) [Example 18, 2,2-Difluoro-1-(3-trifluoromethyl-phenyl)-1,2,3,6,7,8,9,10-octahydro-8-aza-cyclohepta[e]indene]",< 10
12,"FC1(F)Cc2ccc3c(c2C1c1ccncc1)CCNCC3 (stereo not shown) [Example 29, 2,2-Difluoro-1-pyridin-4-yl-1,2,3,6,7,8,9,10-octahydro-8-aza-cyclohepta[e]indene]",< 1000
13,"FC1(F)Cc2ccc3c(c2C1c1cccc(Cl)c1)CCNCC3 (stereo not shown) [Example 23, 1-(3-Chloro-phenyl)-2,2-difluoro-1,2,3,6,7,8,9,10-octahydro-8-aza-cyclohepta[e]indene]",< 10
14,"COc1ccccc1C1c2c(ccc3c2CCNCC3)CC1(F)F (stereo not shown) [Example 25, 2,2-Difluoro-1-(2-methoxy-phenyl)-1,2,3,6,7,8,9,10-octahydro-8-aza-cyclohepta[e]indene]",< 10
15,"FC(F)(F)Oc1cccc(C2c3c(ccc4c3CCNCC4)CC2(F)F)c1 (stereo not shown) [Example 19, 2,2-Difluoro-1-(3-trifluoromethoxy-phenyl)-1,2,3,6,7,8,9,10-octahydro-8-aza-cyclohepta[e]indene]",< 10
16,"COc1ccc(C2c3c(ccc4c3CCNCC4)CC2(F)F)cc1 (stereo not shown) [Example 27, 2,2-Difluoro-1-(4-methoxy-phenyl)-1,2,3,6,7,8,9,10-octahydro-8-aza-cyclohepta[e]indene]",< 100
17,"Fc1cccc(C2c3c(ccc4c3CCNCC4)CC2(F)F)c1 (stereo not shown) [Example 21, 2,2-Difluoro-1-(3-fluoro-phenyl)-1,2,3,6,7,8,9,10-octahydro-8-aza-cyclohepta[e]indene]",< 10
18,"FC1(F)Cc2ccc3c(c2C1Cc1ccccc1)CCNCC3 (stereo not shown) [Example 33, 1-Benzyl-2,2-difluoro-1,2,3,6,7,8,9,10-octahydro-8-aza-cyclohepta[e]indene]",< 10
19,"Fc1ccc(C2c3c(ccc4c3CCNCC4)CC2(F)F)cc1 (stereo not shown) [Example 20, 2,2-Difluoro-1-(4-fluoro-phenyl)-1,2,3,6,7,8,9,10-octahydro-8-aza-cyclohepta[e]indene]",< 10
20,"c1cncc(C2CCc3ccc4c(c32)CCNCC4)c1 (stereo not shown) [Example 11, 1-Pyridin-3-yl-1,2,3,6,7,8,9,10-octahydro-8-aza-cyclohepta[e]indene]",< 10
21,"c1cc2c(c3c1CCNCC3)C(C1CC1)CC2 (stereo not shown) [Example 4, 1-Cyclopropyl-1,2,3,6,7,8,9,10-octahydro-8-aza-cyclohepta[e]indene]",< 10
22,"Cc1cccc(C2c3c(ccc4c3CCNCC4)CC2(F)F)c1 (stereo not shown) [Example 16, 2,2-Difluoro-1-m-tolyl-1,2,3,6,7,8,9,10-octahydro-8-aza-cyclohepta[e]indene]",< 10
23,"c1csc(C2CCc3ccc4c(c32)CCNCC4)n1 (stereo not shown) [Example 40, 1-Thiazol-2-yl-1,2,3,6,7,8,9,10-octahydro-8-aza-cyclohepta[e]indene]",< 10
24,"c1ccc(C2CCc3ccc4c(c32)CCNCC4)cc1 (stereo not shown) [Example 9, 1-Phenyl-1,2,3,6,7,8,9,10-octahydro-8-aza-cyclohepta[e]indene]",< 10
